According to ChEMBL document CHEMBL5291721, “A preclinical secondary pharmacology resource illuminates target-adverse drug reaction associations of marketed drugs” (Nat Commun, 2023):

Legend:
D(1A) dopamine receptor = D(1A) dopamine receptor (Homo sapiens, UniProt P21728)
[1] = molecular target: Neuronal acetylcholine receptor subunit alpha-4 (Homo sapiens, UniProt P43681)
Endothelin-1 receptor = molecular target: T1, Endothelin-1 receptor (Homo sapiens, UniProt P25101)
T1 sequence (P25101 whole entry): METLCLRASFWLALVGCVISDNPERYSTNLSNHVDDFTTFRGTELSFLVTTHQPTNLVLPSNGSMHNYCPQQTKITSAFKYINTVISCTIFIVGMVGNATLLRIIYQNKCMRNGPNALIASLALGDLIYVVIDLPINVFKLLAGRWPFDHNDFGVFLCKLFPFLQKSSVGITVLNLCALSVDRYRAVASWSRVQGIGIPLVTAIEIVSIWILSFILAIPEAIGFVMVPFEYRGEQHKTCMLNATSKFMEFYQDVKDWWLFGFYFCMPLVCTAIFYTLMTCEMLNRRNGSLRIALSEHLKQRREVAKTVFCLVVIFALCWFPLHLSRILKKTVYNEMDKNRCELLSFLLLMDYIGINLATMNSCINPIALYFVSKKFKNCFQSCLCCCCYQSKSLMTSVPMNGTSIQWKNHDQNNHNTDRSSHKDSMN

Histamine H3 receptor = Histamine H3 receptor (Homo sapiens, UniProt Q9Y5N1)
[2] = molecular target: T2, Equilibrative nucleoside transporter 1 (Homo sapiens, UniProt Q99808)
T2 sequence (Q99808 whole entry): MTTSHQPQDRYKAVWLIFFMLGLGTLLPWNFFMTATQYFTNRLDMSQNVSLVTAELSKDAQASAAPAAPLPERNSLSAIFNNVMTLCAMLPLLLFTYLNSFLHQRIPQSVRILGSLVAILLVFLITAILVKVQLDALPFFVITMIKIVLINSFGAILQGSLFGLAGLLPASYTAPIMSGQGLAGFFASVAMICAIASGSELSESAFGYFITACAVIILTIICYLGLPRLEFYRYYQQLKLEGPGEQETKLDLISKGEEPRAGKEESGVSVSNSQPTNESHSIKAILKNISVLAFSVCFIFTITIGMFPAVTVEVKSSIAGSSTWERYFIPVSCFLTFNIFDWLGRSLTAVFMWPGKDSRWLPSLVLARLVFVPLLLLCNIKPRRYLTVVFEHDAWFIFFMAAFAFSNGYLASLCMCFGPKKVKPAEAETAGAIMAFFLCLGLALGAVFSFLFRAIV

Vasopressin V2 receptor = Vasopressin V2 receptor (Homo sapiens, UniProt P30518)
[3] = molecular target: Glutamate receptor ionotropic, NMDA 1 (Rattus norvegicus, UniProt P35439)
Glucocorticoid receptor = molecular target: T3, Glucocorticoid receptor (Homo sapiens, UniProt P04150)
T3 sequence (P04150 whole entry): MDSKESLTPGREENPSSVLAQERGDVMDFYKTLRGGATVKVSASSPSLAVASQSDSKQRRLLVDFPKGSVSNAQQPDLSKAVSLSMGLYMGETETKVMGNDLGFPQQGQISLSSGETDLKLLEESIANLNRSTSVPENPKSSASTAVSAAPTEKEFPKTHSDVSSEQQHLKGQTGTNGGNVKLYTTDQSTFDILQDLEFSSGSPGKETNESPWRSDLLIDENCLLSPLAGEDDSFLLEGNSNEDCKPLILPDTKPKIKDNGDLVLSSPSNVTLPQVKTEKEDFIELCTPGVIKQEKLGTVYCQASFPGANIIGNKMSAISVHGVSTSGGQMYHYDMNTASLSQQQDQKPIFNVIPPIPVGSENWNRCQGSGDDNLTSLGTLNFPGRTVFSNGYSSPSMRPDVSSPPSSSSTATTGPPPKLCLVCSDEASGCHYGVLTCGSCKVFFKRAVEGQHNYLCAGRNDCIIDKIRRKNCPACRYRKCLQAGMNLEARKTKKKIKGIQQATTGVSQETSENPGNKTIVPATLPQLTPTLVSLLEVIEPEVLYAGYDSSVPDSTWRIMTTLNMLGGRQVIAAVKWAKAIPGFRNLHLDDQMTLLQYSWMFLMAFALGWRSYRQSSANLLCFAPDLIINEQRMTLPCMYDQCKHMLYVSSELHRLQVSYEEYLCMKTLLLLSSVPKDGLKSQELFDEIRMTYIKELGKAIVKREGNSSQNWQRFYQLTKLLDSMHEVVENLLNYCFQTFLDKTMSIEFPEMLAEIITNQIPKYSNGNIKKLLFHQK

[4] = molecular target: T4, Beta-2 adrenergic receptor (Homo sapiens, UniProt P07550)
[5] = molecular target: T5, 5-hydroxytryptamine receptor 2C (Homo sapiens, UniProt P28335)
T5 sequence (P28335 whole entry): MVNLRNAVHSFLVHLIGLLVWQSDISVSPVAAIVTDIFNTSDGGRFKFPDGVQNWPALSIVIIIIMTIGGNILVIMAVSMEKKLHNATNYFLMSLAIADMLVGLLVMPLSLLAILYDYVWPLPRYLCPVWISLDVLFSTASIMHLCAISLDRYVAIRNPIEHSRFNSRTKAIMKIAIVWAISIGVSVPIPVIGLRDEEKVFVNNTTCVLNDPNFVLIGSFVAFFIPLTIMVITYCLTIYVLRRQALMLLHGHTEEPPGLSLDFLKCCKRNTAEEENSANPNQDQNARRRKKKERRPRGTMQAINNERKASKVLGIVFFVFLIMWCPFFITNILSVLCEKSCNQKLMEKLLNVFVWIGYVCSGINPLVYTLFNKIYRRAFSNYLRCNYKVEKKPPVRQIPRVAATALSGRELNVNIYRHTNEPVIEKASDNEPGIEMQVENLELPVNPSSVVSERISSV

[6] = molecular target: Neurotensin receptor type 1 (Homo sapiens, UniProt P30989)
[7] = molecular target: T4, Beta-2 adrenergic receptor; type: functional, cell-based
Further: assay procedure not described here.

Sequence of Neurotensin receptor type 1 (P30989 whole entry): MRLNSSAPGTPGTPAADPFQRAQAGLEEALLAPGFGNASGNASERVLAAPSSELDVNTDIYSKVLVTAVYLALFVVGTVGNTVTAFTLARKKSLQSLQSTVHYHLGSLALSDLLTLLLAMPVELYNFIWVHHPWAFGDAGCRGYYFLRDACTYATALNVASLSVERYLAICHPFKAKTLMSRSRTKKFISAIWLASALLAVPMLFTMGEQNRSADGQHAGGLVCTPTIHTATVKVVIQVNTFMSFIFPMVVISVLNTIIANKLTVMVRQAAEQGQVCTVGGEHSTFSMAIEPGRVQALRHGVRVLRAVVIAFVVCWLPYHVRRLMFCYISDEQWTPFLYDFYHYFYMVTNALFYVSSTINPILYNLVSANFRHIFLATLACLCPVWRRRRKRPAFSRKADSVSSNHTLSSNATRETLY
Sequence of Vasopressin V2 receptor (P30518 whole entry): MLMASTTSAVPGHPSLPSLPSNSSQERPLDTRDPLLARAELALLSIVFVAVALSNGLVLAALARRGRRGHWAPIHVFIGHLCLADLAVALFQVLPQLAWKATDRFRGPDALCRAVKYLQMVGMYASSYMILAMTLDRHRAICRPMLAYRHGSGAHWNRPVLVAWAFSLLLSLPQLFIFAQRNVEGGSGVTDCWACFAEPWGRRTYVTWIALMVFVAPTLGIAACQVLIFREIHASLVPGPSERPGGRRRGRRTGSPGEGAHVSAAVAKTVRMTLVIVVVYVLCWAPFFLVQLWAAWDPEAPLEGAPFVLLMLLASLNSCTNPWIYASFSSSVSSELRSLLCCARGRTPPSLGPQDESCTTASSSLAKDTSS
Sequence of Neuronal acetylcholine receptor subunit alpha-4 (P43681 whole entry): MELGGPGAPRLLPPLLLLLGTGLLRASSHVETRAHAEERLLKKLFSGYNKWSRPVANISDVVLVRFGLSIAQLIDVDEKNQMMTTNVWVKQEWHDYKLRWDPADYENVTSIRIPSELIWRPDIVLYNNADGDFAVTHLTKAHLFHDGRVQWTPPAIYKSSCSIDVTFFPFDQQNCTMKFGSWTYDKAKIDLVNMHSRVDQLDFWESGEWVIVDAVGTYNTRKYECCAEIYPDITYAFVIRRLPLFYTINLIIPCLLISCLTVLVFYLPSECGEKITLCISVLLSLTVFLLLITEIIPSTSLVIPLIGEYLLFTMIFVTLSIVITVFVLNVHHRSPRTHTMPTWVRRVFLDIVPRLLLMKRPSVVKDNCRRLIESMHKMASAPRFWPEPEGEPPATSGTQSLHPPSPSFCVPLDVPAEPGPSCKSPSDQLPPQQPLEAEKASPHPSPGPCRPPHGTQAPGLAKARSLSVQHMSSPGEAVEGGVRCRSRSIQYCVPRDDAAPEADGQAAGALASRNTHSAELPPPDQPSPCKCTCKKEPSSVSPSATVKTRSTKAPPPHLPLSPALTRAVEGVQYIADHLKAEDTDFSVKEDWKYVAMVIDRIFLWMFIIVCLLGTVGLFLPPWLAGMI
Sequence of Histamine H3 receptor (Q9Y5N1 whole entry): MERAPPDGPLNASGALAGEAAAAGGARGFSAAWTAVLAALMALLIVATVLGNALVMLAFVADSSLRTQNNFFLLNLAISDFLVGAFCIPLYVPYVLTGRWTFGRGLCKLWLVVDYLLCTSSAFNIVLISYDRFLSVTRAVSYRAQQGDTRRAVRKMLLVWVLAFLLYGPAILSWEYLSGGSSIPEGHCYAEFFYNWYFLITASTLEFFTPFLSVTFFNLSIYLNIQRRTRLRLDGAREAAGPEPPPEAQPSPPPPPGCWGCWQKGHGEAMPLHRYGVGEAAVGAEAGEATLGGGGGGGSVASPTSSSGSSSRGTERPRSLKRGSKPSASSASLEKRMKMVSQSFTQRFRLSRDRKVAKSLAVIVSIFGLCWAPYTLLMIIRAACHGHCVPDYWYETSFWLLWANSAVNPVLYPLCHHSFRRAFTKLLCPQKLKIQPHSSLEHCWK
Sequence of D(1A) dopamine receptor (P21728 whole entry): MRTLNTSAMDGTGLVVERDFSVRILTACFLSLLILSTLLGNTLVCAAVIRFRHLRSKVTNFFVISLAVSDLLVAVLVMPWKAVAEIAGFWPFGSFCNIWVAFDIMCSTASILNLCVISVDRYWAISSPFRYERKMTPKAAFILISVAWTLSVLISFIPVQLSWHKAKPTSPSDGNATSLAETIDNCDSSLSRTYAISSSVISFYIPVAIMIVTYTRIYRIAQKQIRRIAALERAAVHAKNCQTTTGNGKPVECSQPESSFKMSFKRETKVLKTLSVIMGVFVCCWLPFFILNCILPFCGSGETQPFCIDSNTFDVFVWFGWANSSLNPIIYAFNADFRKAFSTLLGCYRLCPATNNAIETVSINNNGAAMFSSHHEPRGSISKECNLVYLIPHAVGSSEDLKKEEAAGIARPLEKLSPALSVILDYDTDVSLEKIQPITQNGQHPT
T4 sequence (P07550 whole entry): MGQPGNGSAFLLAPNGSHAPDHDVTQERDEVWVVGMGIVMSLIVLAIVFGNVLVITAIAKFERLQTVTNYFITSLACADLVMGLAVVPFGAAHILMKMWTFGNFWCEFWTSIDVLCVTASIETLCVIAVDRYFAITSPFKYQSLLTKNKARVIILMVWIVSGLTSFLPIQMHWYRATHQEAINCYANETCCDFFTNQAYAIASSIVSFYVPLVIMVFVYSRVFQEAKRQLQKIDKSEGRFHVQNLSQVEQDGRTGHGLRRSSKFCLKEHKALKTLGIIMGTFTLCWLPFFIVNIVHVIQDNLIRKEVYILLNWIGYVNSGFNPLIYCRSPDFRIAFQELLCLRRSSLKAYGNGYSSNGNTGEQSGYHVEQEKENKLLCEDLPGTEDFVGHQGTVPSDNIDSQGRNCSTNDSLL

| Structure (SMILES) | AC50 (D(1A) dopamine receptor) | AC50 [1] | AC50 (Endothelin-1 receptor) | AC50 (Histamine H3 receptor) | AC50 [2] | AC50 (Vasopressin V2 receptor) | AC50 [3] | AC50 (Glucocorticoid receptor) | AC50 [4] | AC50 [5] | AC50 [6] | AC50 [7] |
| --- | --- | --- | --- | --- | --- | --- | --- | --- | --- | --- | --- | --- |
| C=CCCCCCCCCC(=O)O [UNDECYLENIC ACID] | > 30 µM | – | – | – | – | – | – | – | – | – | – | – |
| CCC(CC)(CC(=O)Nc1cccc(/C=C/c2nc(C3CCC3)cs2)c1)C(=O)O | – | > 30 µM | > 30 µM | > 30 µM | > 30 µM | > 30 µM | – | – | – | – | – | – |
| O=[N+]([O-])O[C@@H]1CO[C@H]2[C@@H]1OC[C@@H]2O [ISOSORBIDE MONONITRATE] | – | – | > 30 µM | > 10 µM | > 30 µM | > 30 µM | > 10 µM | > 30 µM | > 10 µM | > 30 µM | > 30 µM | – |
| O=[N+]([O-])c1cn2c(n1)OC[C@@H](OCc1ccc(OC(F)(F)F)cc1)C2 [PRETOMANID] | – | – | > 30 µM | – | > 30 µM | > 30 µM | > 10 µM | – | > 10 µM | > 10 µM | > 10 µM | – |
| Cc1oc(=O)oc1CN1CCN(c2cc3c(cc2F)c(=O)c(C(=O)O)c2n3C(C)S2)CC1 (stereo not drawn) [PRULIFLOXACIN] | > 30 µM | – | – | – | – | – | > 30 µM | – | – | > 30 µM | – | > 30 µM |
| Cc1cc(C)c(NC(=O)CN(CC(=O)O)CC(=O)O)c(C)c1Br [MEBROFENIN] | > 30 µM | – | – | – | – | – | > 30 µM | – | – | > 30 µM | – | > 30 µM |
| COC1=C(OC)C(=O)C(C/C=C(\C)CC/C=C(\C)CC/C=C(\C)CC/C=C(\C)CC/C=C(\C)CC/C=C(\C)CC/C=C(\C)CC/C=C(\C)CC/C=C(\C)CCC=C(C)C)=C(C)C1=O [UBIDECARENONE] | – | – | – | – | – | – | > 30 µM | – | – | > 30 µM | – | > 30 µM |
| CC[C@H]1CN2CCc3cc(OC)c(OC)cc3[C@@H]2C[C@@H]1C[C@H]1NCCc2cc(OC)c(OC)cc21 [EMETINE] | > 30 µM | > 30 µM | > 30 µM | > 30 µM | > 30 µM | > 30 µM | > 30 µM | > 30 µM | > 30 µM | > 30 µM | – | > 30 µM |
| CN1CCN(C2=Nc3ccccc3Sc3ccc(Cl)cc32)CC1 [CLOTHIAPINE] | – | – | – | – | – | – | > 30 µM | – | – | 0.8 µM | – | > 30 µM |
| C=CCN1C[C@H](C(=O)N(CCCN(C)C)C(=O)NCC)C[C@@H]2c3cccc4[nH]cc(c34)C[C@H]21 [CABERGOLINE] | – | > 10 µM | – | – | > 30 µM | > 10 µM | > 10 µM | > 10 µM | > 10 µM | > 30 µM | – | > 30 µM |
| CN(C)CCC=C1c2ccccc2C=Cc2ccccc21 [CYCLOBENZAPRINE] | – | > 10 µM | > 30 µM | > 10 µM | > 30 µM | > 30 µM | > 10 µM | > 30 µM | > 10 µM | 0.88 µM | > 30 µM | > 30 µM |
| CCOc1ccccc1OCC1CNCCO1 (stereo not drawn) [VILOXAZINE] | – | > 10 µM | > 30 µM | > 10 µM | > 30 µM | > 30 µM | > 10 µM | > 30 µM | 7.6 µM | – | > 30 µM | > 30 µM |
| COc1ccc(C(=O)Nc2ccccc2CCC2CCCCN2C)cc1 (stereo not drawn) [ENCAINIDE] | – | > 10 µM | > 30 µM | > 10 µM | > 30 µM | > 30 µM | > 10 µM | > 30 µM | > 10 µM | 0.81 µM | > 30 µM | > 30 µM |
| CN(C)CCc1c[nH]c2ccc(C[C@H]3COC(=O)N3)cc12 [ZOLMITRIPTAN] | – | > 30 µM | > 30 µM | > 30 µM | > 30 µM | > 30 µM | > 30 µM | > 30 µM | – | > 30 µM | – | > 30 µM |
| CN(C)CC/C=C1\c2ccccc2CSc2ccccc21 [DOTHIEPIN] | – | > 30 µM | > 30 µM | 29 µM | – | > 30 µM | > 30 µM | > 30 µM | > 30 µM | 1.6 µM | – | > 30 µM |
| CC[C@@H](C(N)=O)N1CCCC1=O | – | > 30 µM | > 30 µM | > 30 µM | > 30 µM | > 30 µM | > 30 µM | – | – | > 30 µM | – | > 30 µM |
| Nc1ccncc1N [AMIFAMPRIDINE] | > 30 µM | – | – | – | – | – | – | – | – | – | – | – |
| CCOc1ccc(Cc2cc([C@@H]3O[C@H](CO)[C@@H](O)[C@H](O)[C@H]3O)ccc2Cl)cc1 [DAPAGLIFLOZIN] | – | > 10 µM | – | > 10 µM | > 30 µM | > 30 µM | > 10 µM | > 30 µM | > 10 µM | > 30 µM | – | – |
| C[N+]1(CCCCC[N+]2(C)CCCC2)CCCC1 [PENTOLINIUM] | – | > 30 µM | – | – | – | – | – | – | – | – | – | – |
| COc1ccccc1N1CCN(CC(O)COc2cccc3ccccc23)CC1 (stereo not drawn) [NAFTOPIDIL] | > 30 µM | > 10 µM | – | – | 13 µM | – | > 30 µM | 8.9 µM | – | > 30 µM | – | > 30 µM |
| COc1cc2nc(N3CCN(C(=O)c4ccco4)CC3)nc(N)c2cc1OC [PRAZOSIN] | – | > 10 µM | > 30 µM | > 10 µM | > 30 µM | > 30 µM | > 10 µM | > 30 µM | > 10 µM | > 30 µM | > 30 µM | – |
| CCCC1O[C@@H]2C[C@H]3[C@@H]4CCC5=CC(=O)C=C[C@]5(C)[C@H]4[C@@H](O)C[C@]3(C)[C@]2(C(=O)CO)O1 (stereo partly drawn) [BUDESONIDE] | – | > 10 µM | – | > 10 µM | > 10 µM | > 10 µM | > 10 µM | – | > 10 µM | > 30 µM | – | – |
| NC1CCN(c2c(F)cc3c(=O)c(C(=O)O)cn(C4CC4)c3c2Cl)C1 (stereo not drawn) [CLINAFLOXACIN] | – | – | > 300 µM | – | – | – | – | – | – | – | – | – |
| CCCCCNC(=N)N/N=C/c1c[nH]c2ccc(OC)cc12 [TEGASEROD] | – | > 30 µM | > 30 µM | 27.2 µM | > 30 µM | 20.3 µM | 16 µM | > 30 µM | 7.36 µM | 0.543 µM | > 30 µM | – |
